The results in this text go back to ChEMBL document CHEMBL1201862, “PubChem BioAssay data set” (2004).

Some test systems named below: ACHN; CAKI-1; HOP-62; HT-29; Hs-578T; K562; NCI-H23; PC-3; RPMI-8226; SF-268; SF-539; SK-MEL-28; SK-MEL-2; SK-MEL-5; SNB-75; SR; A498; MDA-N; T47D.
Test in all cases: NCI tumour cell line growth inhibition, 48 h

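Method: 48-hour compound exposure of cells in 96-well plates, five concentrations, linear interpolation of endpoints. Abbreviation: GI50, concentration required for 50% inhibition of growth.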 Active and inactive are the calls of the source. Cut-off read from the data, not from the text of the source: active = GI50 up to about 1.1 µM and inactive = higher. Some results are limits rather than exact numbers.

With `Cc1cccc(/N=N/c2ccc(/N=N/c3c(O)ccc4ccccc34)cc2C)c1`, the GI50 in the assay with ACHN was 49.3 µM (inactive); in the assay with CAKI-1, 40.2 µM (inactive); in the assay on HOP-62, 22.4 µM (inactive); in the assay on HT-29, > 100 µM (inactive); with Hs-578T, 33.9 µM (inactive); in the assay with K562, > 100 µM (inactive). The GI50 with NCI-H23 was > 100 µM (inactive); in the assay on PC-3, 88.3 µM (inactive); with RPMI-8226 it was > 100 µM (inactive); in the assay on SF-268 it was > 100 µM (inactive); with SF-539 it was 36.2 µM (inactive); with SK-MEL-28, > 100 µM (inactive). Also, the GI50 in the assay on SK-MEL-2 is > 100 µM (inactive); with SK-MEL-5, > 100 µM (inactive); with SNB-75, 0.144 µM (active); with SR, 21.4 µM (inactive).

Take `CCOC(=O)C1=C(C)N(c2ccc(C)cc2)C2(O)C=CC(O)=C3C(=O)c4ccccc4C(=O)C312` (centres undefined): the GI50 in the assay with A498 is 29.4 µM (inactive); in the assay with ACHN it was 22.7 µM (inactive); in the assay on CAKI-1, 32.2 µM (inactive); in the assay on HOP-62, > 100 µM (inactive); in the assay on HT-29, 25 µM (inactive); in the assay on MDA-N it was 21.1 µM (inactive). For the same molecule, the GI50 in the assay with NCI-H23 was 38.4 µM (inactive); in the assay on PC-3, 25.1 µM (inactive); in the assay on RPMI-8226, 11.1 µM (inactive); in the assay on SF-268, 45.2 µM (inactive); in the assay on SF-539 it was 22.2 µM (inactive); in the assay on SK-MEL-28, 24.9 µM (inactive). For the same molecule, the GI50 in the assay with SK-MEL-2 was 37.1 µM (inactive); in the assay on SK-MEL-5 it was 19.7 µM (inactive); with SNB-75, 24.1 µM (inactive); with SR, 0.635 µM (active).

Take `CC(C)[Si](OC12CCC(CC1O)CC2CO)(C(C)C)C(C)C` (centres undefined): the GI50 is 16.7 µM (inactive) in the assay with A498; 14.2 µM (inactive) in the assay with ACHN; 18.7 µM (inactive) with CAKI-1; 16.4 µM (inactive) in the assay with HOP-62; 15.5 µM (inactive) in the assay on HT-29; 14.7 µM (inactive) in the assay on K562. The GI50 in the assay with NCI-H23 was 12.8 µM (inactive); in the assay on PC-3, 11.8 µM (inactive); in the assay on RPMI-8226, 10.2 µM (inactive); with SF-268, 14.6 µM (inactive); in the assay with SF-539, 23.4 µM (inactive); in the assay with SK-MEL-28, 20.4 µM (inactive). In addition, the GI50 is 15.8 µM (inactive) with SK-MEL-2; 18.3 µM (inactive) in the assay with SK-MEL-5; 13.9 µM (inactive) in the assay with SNB-75; 7.55 µM (inactive) in the assay on SR; 9.77 µM (inactive) in the assay with T47D.

Take `O=C1c2cccc3cccc(c23)C(=O)N1CCCNOCCONCCCN1C(=O)c2cccc3cccc(c23)C1=O`: the GI50 is > 100 µM (inactive) in the assay with A498; > 100 µM (inactive) in the assay with ACHN; 49.3 µM (inactive) in the assay with CAKI-1; 62.1 µM (inactive) in the assay with HOP-62; 92.5 µM (inactive) in the assay on HT-29; 92.3 µM (inactive) in the assay with Hs-578T. Besides, the GI50 in the assay with K562 was 27 µM (inactive); in the assay on MDA-N it was > 100 µM (inactive); in the assay with NCI-H23 it was 99.8 µM (inactive); in the assay on PC-3, 55.1 µM (inactive); with RPMI-8226, 16.9 µM (inactive); in the assay with SF-268 it was 79.4 µM (inactive). For the same molecule, the GI50 in the assay with SK-MEL-28 was > 100 µM (inactive); with SK-MEL-2, > 100 µM (inactive); in the assay on SK-MEL-5, 58.5 µM (inactive); with SNB-75, 42.6 µM (inactive); in the assay with SR it was 81.7 µM (inactive).

For `C/C=C\C(CC(=O)NCCc1cn(C(=O)OCc2ccccc2)c2ccccc12)CC(=O)OC` (centres undefined), the GI50 with A498 was > 100 µM (inactive); in the assay with ACHN it was > 100 µM (inactive); in the assay with CAKI-1, > 100 µM (inactive); in the assay on HOP-62 it was > 100 µM (inactive); in the assay on HT-29 it was 48.5 µM (inactive); with Hs-578T it was > 100 µM (inactive). Also, the GI50 with K562 was 71.1 µM (inactive); in the assay with MDA-N it was 79.1 µM (inactive); with NCI-H23, 89.5 µM (inactive); in the assay with PC-3, 50.2 µM (inactive); in the assay on RPMI-8226, 58.7 µM (inactive); in the assay on SF-268, > 100 µM (inactive). In addition, the GI50 in the assay with SK-MEL-28 was > 100 µM (inactive); with SK-MEL-2, > 100 µM (inactive); in the assay with SK-MEL-5 it was 34.9 µM (inactive); in the assay with SNB-75, > 100 µM (inactive).

Take `FC(F)(F)c1cc(Cl)cnc1N/N=C(/c1ccccc1)c1ccccn1`: the GI50 was 2.92 µM (inactive) in the assay on ACHN; 3.37 µM (inactive) in the assay on CAKI-1; 3.98 µM (inactive) in the assay with HOP-62; 0.248 µM (active) in the assay on HT-29; 0.422 µM (active) in the assay with Hs-578T; 2.16 µM (inactive) with K562. Besides, the GI50 in the assay on MDA-N is 17.8 µM (inactive); with NCI-H23, 2.55 µM (inactive); in the assay on PC-3, 3.54 µM (inactive); in the assay with RPMI-8226 it was 4.11 µM (inactive); in the assay on SF-268 it was 0.78 µM (active); in the assay on SF-539 it was 3.66 µM (inactive). Further, the GI50 was 6.92 µM (inactive) in the assay with SK-MEL-28; 3.96 µM (inactive) in the assay on SK-MEL-2; 3.15 µM (inactive) in the assay with SK-MEL-5; 0.298 µM (active) in the assay with SNB-75; 0.708 µM (active) in the assay on SR.

In the case of `C=CC[C@H](O)[C@@](NC(=O)OCc1ccccc1)(Sc1ccc(C)cc1)C(F)(F)F`, the GI50 with A498 was 65.3 µM (inactive); with ACHN, > 100 µM (inactive); in the assay on CAKI-1 it was 24.7 µM (inactive); in the assay on HOP-62 it was 28.9 µM (inactive); with HT-29 it was 23.9 µM (inactive); in the assay with Hs-578T it was 24 µM (inactive). Further, the GI50 is 35 µM (inactive) in the assay on K562; 19.2 µM (inactive) in the assay with MDA-N; 24.5 µM (inactive) with NCI-H23; 29.8 µM (inactive) with PC-3; 23.4 µM (inactive) with RPMI-8226; 18.1 µM (inactive) with SF-268. In addition, the GI50 in the assay on SF-539 was 14.6 µM (inactive); in the assay with SK-MEL-28, 43.7 µM (inactive); in the assay with SK-MEL-2 it was 26.8 µM (inactive); in the assay with SK-MEL-5, 26.9 µM (inactive); in the assay with SR, 20.1 µM (inactive).

Take `O=c1[nH]c2c(c(=O)[nH]1)SC(c1ccccc1)C2` (centres undefined): the GI50 with A498, in the assay with ACHN, with CAKI-1, in the assay on HOP-62, in the assay with HT-29 and with Hs-578T was > 100 µM (inactive) each time. For the same molecule, the GI50 in the assay with K562, with MDA-N, in the assay on NCI-H23, in the assay on PC-3, in the assay on RPMI-8226 and in the assay with SF-268 was > 100 µM (inactive) in each case. In addition, the GI50 with SF-539 was > 100 µM (inactive); in the assay with SK-MEL-28 it was > 100 µM (inactive); in the assay on SK-MEL-2, 93.8 µM (inactive); in the assay on SK-MEL-5, > 100 µM (inactive); with SNB-75 it was 86.9 µM (inactive).

Regarding `CCOC(=O)c1cc(-c2ccc(OC)cc2)c([N+](=O)[O-])n1C`, the GI50 is > 10 µM (inactive) in the assay on ACHN; > 10 µM (inactive) in the assay with HT-29; > 10 µM (inactive) with Hs-578T; 6.84 µM (inactive) in the assay on K562; 8.91 µM (inactive) in the assay with MDA-N; > 10 µM (inactive) in the assay with NCI-H23. Besides, the GI50 with SF-268 is > 10 µM (inactive); in the assay on SF-539, > 10 µM (inactive); in the assay on SK-MEL-2, > 10 µM (inactive); in the assay with SNB-75, > 10 µM (inactive); in the assay with SR it was 9.1 µM (inactive).
